Structures are written as SMILES. Entries after “also recorded” stand apart in the source; their conditions may differ.

The values below come from patent US20240165273A1, “SELF-ASSEMBLING MOLECULES ENABLING HIGH PERFORMANCE IN VIVO IMAGING IN THE SECOND NEAR INFRARED (NIR-II) WINDOW” (Baylor College of Medicine, priority 2022, published 2024).

The conditions of data set [1]: in 20 minutes post-intravenous injection; cited from earlier work.
Data set [2] deals with HPV-positive mEER tumor. Kind of data set: In vivo NIR-II tumor imaging, mEER tumor model. On the set-up: species or system mouse. Conditions: mEER tumor bearing mice, i.v., 5 mg/kg or similar dose. An excerpt:
(§1) Applicants hypothesized that intravenous administration of NIR-II dyes such as XW-03-66, has the potential to accumulate in these tumors via the EPR effect, thus enabling NIR-II image-guided intraoperative resection with improved adequate margin delineation. To test this hypothesis, two different syngeneic murine models of head and neck squamous cell carcinoma were used: (1) the human papillomavirus (HPV)-positive mEER tumor model, featuring murine pharyngeal epithelial cells transformed with HPV16 E6 and E7 oncogenes and H-ras, and (2) HPV-ve, the carcinogen induced Mouse Oral Cancer 2 (MOC2) tumor model.
(§2) Test mice (n=4 for each model) were first subjected to preoperative MRI scans to establish presence of the tumor. Following MRI confirmation, tumor-bearing mice were administered XW-03-66 (dose=5 mg/kg) by tail vein injection. For comparison, a similar number of mice with MRI-confirmed tumors were injected with clinically approved ICG at a similar dose. To monitor dynamics of tumor uptake, NIR-II images were collected at different time intervals over a period of seven days.

Data set [3] relates to Mouse Oral Cancer 2 (MOC2) tumor. As to the kind of experiment: In vivo NIR-II tumor imaging, MOC2 tumor model.
Text: as §1, §2

Data set [4] concerns the target serum albumin (Homo sapiens, UniProt P02768). Conditions: binding with serum albumin in solution; cited from earlier work.
Data set [5] is described as follows: Photostability under continuous laser excitation in PBS and bovine plasma. Type of data set: physicochemical.
Data set [6] can be described thus: Optical properties (absorption, emission, quantum yield, solution) in PBS. The data set is classed as physicochemical. Conditions: PBS (50 μM).
The conditions of data set [7]: in PBS; cited from earlier work.

Chain of serum albumin (P02768 25-609): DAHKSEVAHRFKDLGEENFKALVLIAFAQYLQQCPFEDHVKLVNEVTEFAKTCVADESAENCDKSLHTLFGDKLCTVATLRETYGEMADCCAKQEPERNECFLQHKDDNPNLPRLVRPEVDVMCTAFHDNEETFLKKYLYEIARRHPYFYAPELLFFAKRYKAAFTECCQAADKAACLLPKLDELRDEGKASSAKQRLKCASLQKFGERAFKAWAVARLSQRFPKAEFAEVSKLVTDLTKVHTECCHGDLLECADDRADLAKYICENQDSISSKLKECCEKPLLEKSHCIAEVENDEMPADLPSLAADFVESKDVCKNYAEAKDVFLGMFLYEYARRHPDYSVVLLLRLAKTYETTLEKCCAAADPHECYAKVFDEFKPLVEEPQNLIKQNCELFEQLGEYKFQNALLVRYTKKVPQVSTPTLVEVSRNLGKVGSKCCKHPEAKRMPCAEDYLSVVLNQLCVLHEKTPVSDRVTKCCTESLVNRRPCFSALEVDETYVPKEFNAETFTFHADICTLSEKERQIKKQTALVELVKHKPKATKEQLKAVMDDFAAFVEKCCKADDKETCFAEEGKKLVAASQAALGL

`CC1(C)C(/C=C/C=C/C=C/C=C2\N(CCCCS(=O)(=O)O)c3ccc4ccccc4c3C2(C)C)=[N+](CCCCS(=O)(=O)[O-])c2ccc3ccccc3c21` [ICG, indocyanine green]: the “fraction removed from circulation via the liver” value in data set [1] is 97%. In addition, the NIR-II tumor signal result in data set [2] is “no signal uptake in either tumor model; also recorded: faint tumor signals at 1-2 h, and no apparent signal thereafter”; in data set [3] (MOC2 tumor bearing mice, i.v., 5 mg/kg or similar dose, 5 mg/kg), “no signal uptake in either tumor model; also recorded: faint tumor signal at 1-2 h, and no apparent signal thereafter”. In addition, the liver signal result in data set [3] (tumor-bearing mice, model not distinguished) is on record as “observed in the liver in images captured within the first four hours, but completely disappeared thereafter”. In addition, the “factor of fluorescence increase compared to solution in PBS” value in data set [4] is recorded as 23. In addition, the “time of drop in fluorescence to baseline” value in data set [5] was at most 30 min. Also, the “dissolution in PBS” value in data set [6] is “dissolve in PBS resulting in clear solutions”. Moreover, the “NIR-II QY” value in data set [7] is recorded as 0.042%.
